Results: patent US6632621B1, “G protein-coupled receptor-like receptors and modulators thereof” (priority 1999, dated 2003)
Like-named read-outs stand apart in the source and are kept apart here. Where a SMILES comes first, the peptide text is derived from it. Where no end group is shown, it is not given here. [ ]: non-standard residue; d: D form. Tyr(3-I) = N[C@@H](Cc1ccc(O)c(I)c1)C(=O)O; pGlu = O=C1CC[C@@H](C(=O)O)N1

Tests used:
CEGPCR12h receptor = target: T1, CEGPCR12h receptor (Caenorhabditis elegans, UniProt Q20275); experiment: [35S]GTPγS binding assay, CEGPCR12h expressed in CHO cells; type: biochemical, C. elegans; conditions: for activity at single concentration: peptides tested at 5 μM
T1 sequence (Q20275 1-402): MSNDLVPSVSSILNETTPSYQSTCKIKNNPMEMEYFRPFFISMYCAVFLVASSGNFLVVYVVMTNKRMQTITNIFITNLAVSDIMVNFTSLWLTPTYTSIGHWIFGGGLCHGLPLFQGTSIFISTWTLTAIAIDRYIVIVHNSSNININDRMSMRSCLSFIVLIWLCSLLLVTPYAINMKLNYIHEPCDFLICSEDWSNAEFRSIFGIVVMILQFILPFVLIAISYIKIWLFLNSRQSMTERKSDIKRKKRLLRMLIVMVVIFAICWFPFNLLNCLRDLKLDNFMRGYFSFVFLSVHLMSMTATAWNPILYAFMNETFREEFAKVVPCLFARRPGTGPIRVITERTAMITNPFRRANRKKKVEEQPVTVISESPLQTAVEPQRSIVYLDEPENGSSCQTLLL
Procedure: (§1) Recombinant pCR3.1 clones encoding invertebrate GPCR-like receptors were transformed into wild-type CHO-K1 cells and functional expression was achieved using a temperature-shift incubation protocol. The CHO-K1 cells were cultured at 37° C. in a humidified atmosphere of 5% CO2 in air in DMEM medium supplemented with 10% heat-inactivated fetal bovine serum (i.e., FBS), 10 μg/ml gentamicin, and 0.1 mM nonessential amino acids to give complete DMEM medium. Additionally, for incubations at temperatures lower than 37° C., the medium was fortified with 10 mM HEPES (pH 7.4). Cells were transfected with recombinant pCR3.1 clones containing GPCR-like receptor DNAs, using LipofectAMINE PLUS™, essentially according to the manufacturer's instructions. […] In separate plastic tubes, PLUS (20 μl/plate; Life Technologies) was added to 0.75 ml/plate of recombinant plasmid DNA in OptiMEM (5 μg/plate; Gibco/BRL—Life Technologies), mixed and incubated at room temperature for 15 minutes. Separately, LipofectAMINE (30 μl/plate) was mixed with 0.75 ml OptiMEM and added to the pre-complexed DNA/PLUS mixture and incubated at room temperature for 15 minutes. The culture medium was then replaced with serum-free transfection medium (DMEM, 5 ml/plate). The DNA-PLUS-LipofectAMINE complex was then added to the plates (1.5 ml/plate) and mixed gently into the medium, followed by a 3 hour incubation at 37° C. in 5% CO2. At this time, the medium was supplemented with complete DMEM medium containing 20% FBS (6.5 ml/plate) and incubation was continued at 37° C. in 5% CO2. After a total of 24 hours at 37° C. in 5% CO2, the medium was replaced with complete DMEM medium fortified with 10 mM HEPES (10 ml/plate) and the cells were moved to an incubator maintained at 28-30° C. in a humidified atmosphere of 5% CO2 in air. The incubation continued for an additional 24 hours, typically at the lower temperature indicated above. A plasmid encoding Green Fluorescent Protein (i.e., GFP, 4 μg/plate) was used for transient GFP expression in CHO-K1 cells to estimate the transfection yields under the same conditions as used for GPCR-like receptor polynucleotides.
(§2) To assess expression, membranes were prepared from transfected CHO-K1 cells. Transfected cells were washed once with ice-cold Dulbecco's phosphate-buffered saline (i.e., PBS), 5 ml per 10 cm plate, and the cells were scraped into 5 ml of the same buffer. Cell suspensions from multiple plates were combined and centrifuged at 500×g for 10 minutes at 4° C. The cell pellet was reconstituted in ice-cold TEE (25 mM Tris, pH 7.4, 5 mM EGTA, 5 mM EDTA). Convenient aliquots were snap-frozen in liquid nitrogen and stored at −70° C. After thawing, the cells were homogenized and centrifuged at 500×g for 5 minutes at 4° C. to pellet nuclei and unbroken cells. Tile supernatant was centrifuged at 47,000×g for 30 minutes at 4° C. The membrane pellet was washed once with TEE, resuspended in 20 mM HEPES, pH 7.4, 100 mM NaCl, 10 mM MgCl2, 1 mM EDTA (assay buffer), distributed into aliquots of 0.5-1.0 ml, and frozen in liquid nitrogen. Membrane aliquots were stored at −70° C. Membrane protein concentration was determined using the BCA Protein Assay Reagent from Pierce (Rockford, Ill.), with bovine serum albumin (i.e., BSA) as a standard.
(§3) Aliquots of cell membranes prepared as described above and stored at −70° C. were thawed, homogenized, and diluted into buffer containing 20 mM HEPES, pH 7.4, 10 mM MgCl2, 1 mM EDTA, and 100 mM NaCl at a concentration of 10-50 μg/ml. Reaction mixtures were prepared in 96-well polypropylene plate, Nunc. Twenty microliters of a 10× putative modulator compound (including but not limited to potential peptide ligands) solution or a water control (20 μl), 18.2 µM GDP (0.11 ml, 10 μM final concentration), and a membrane preparation were mixed and placed on ice. The modulator/ligand-GDP-membrane mixtures were incubated for 20 minutes at room temperature on a shaking platform and then placed on ice.

CEGPCR5 = target: T2, CEGPCR5 (Caenorhabditis elegans, UniProt Q18179); experiment: [35S]GTPγS binding assay, CEGPCR5 expressed in CHO cells; type: biochemical, C. elegans
T2 sequence (Q18179 1-402): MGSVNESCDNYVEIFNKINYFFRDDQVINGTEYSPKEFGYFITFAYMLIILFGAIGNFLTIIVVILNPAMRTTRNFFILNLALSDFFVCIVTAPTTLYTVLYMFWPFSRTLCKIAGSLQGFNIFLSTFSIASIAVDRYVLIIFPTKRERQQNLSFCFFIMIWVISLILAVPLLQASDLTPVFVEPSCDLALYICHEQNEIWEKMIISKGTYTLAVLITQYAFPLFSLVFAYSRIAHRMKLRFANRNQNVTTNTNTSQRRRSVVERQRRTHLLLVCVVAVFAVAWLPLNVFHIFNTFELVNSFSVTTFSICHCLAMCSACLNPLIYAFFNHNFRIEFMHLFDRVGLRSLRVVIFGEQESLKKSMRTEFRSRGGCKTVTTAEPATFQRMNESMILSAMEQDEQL
Procedure: as §1, §2, §3

CEGPCR16 receptor = target: T3, CEGPCR16 receptor (Caenorhabditis elegans, UniProt Q9XXU4); experiment: [35S]GTPγS binding assay, CEGPCR16 expressed in CHO cells; type: biochemical, C. elegans
T3 sequence (Q9XXU4 1-365): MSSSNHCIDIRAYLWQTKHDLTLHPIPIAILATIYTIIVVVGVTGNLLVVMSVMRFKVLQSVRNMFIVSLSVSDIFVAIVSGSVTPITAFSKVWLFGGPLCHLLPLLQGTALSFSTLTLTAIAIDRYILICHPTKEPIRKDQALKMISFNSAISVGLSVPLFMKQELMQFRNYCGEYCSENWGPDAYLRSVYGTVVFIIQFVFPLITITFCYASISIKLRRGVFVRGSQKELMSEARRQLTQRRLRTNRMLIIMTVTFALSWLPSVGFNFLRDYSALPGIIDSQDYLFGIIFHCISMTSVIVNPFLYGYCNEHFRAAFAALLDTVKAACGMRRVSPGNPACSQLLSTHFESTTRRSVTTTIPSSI
Procedure: as §1, §2, §3

CEGPCR4 = target: T4, CEGPCR4 (C. elegans); experiment: competition binding assay, CEGPCR4/CHO membranes; IC50 range printed once for block r39-r54
T4 construct: Expressed in CHO cells; also called CEGPCR4 receptor; CEGPCR4/CHO membranes
T4 chain: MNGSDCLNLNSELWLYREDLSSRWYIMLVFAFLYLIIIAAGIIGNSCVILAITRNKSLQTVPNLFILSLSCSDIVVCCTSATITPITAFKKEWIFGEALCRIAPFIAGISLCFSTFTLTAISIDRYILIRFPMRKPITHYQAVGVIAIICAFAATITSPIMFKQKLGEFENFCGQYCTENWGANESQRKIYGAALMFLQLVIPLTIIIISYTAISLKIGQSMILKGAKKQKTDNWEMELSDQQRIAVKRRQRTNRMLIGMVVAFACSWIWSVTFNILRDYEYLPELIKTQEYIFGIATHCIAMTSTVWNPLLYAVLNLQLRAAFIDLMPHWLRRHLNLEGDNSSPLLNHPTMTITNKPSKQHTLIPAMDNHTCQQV

[1] = EC50 range, Table 11, one range for the group, results apply to all CEGPCR12 isoforms
[2] = EC50 range, Table 9, one range for the group of peptides
[3] = Table 10, one range for the group of peptides, read-out: EC50 range

CC(C)C[C@H](NC(=O)[C@H](Cc1ccccc1)NC(=O)[C@@H](NC(=O)[C@H](Cc1c[nH]cn1)NC(=O)[C@H](CC(=O)O)NC(=O)[C@@H](NC(=O)[C@H](CC(=O)O)NC(=O)[C@@H]1CCCN1C(=O)[C@@H](N)Cc1ccc(O)c(I)c1)C(C)C)C(C)C)C(=O)N[C@@H](CCCNC(=N)N)C(=O)N[C@@H](Cc1ccccc1)C(N)=O [[I]Y^0PDVDHVFLRF-NH2] (H-[Tyr(3-I)]PDVDHVFLRF-NH2)
EC50 (CEGPCR12h receptor; EC50): 478 nM
EC50 (CEGPCR12h receptor; [1]): 300 to 500 nM

CC(C)C[C@H](NC(=O)[C@H](Cc1ccccc1)NC(=O)[C@@H](NC(=O)[C@H](Cc1c[nH]cn1)NC(=O)[C@H](CC(=O)O)NC(=O)[C@@H](NC(=O)[C@H](CC(=O)O)NC(=O)[C@@H]1CCC(=O)N1)C(C)C)C(C)C)C(=O)N[C@@H](CCCNC(=N)N)C(=O)N[C@@H](Cc1ccccc1)C(N)=O [pQDVDHVFLRF-NH2] ([pGlu]DVDHVFLRF-NH2)
EC50 (CEGPCR12h receptor; [1]): 1500 to 3000 nM

AGAKFIRF-NH2 [AGAKFIRF-NH2]
EC50 (CEGPCR5): 1000 to 8000 nM

AGPRFIRF-NH2 [AGPRFIRF-NH2]
EC50 (CEGPCR5): 1000 to 8000 nM

ARGPQLRLRF-NH2 [ARGPQLRLRF-NH2]
EC50 (CEGPCR5; [2]): 1000 to 8000 nM

AVPGVLRF-NH2 [AVPGVLRF-NH2]
EC50 (CEGPCR16 receptor; [3]): 700 to 4600 nM
activity at single concentration (CEGPCR12h receptor; Table 11): active at

DFDGAMPGVLRF-NH2 [DFDGAMPGVLRF-NH2]
EC50 (CEGPCR16 receptor; [3]): 700 to 4600 nM

DPSFLRF-NH2 [DPSFLRF-NH2]
EC50 (CEGPCR5): 80 to 800 nM

DVPGVLRF-NH2 [DVPGVLRF-NH2]
EC50 (CEGPCR16 receptor; [3]): 700 to 4600 nM
activity at single concentration (CEGPCR12h receptor; Table 11): active at

EAEEPLGTMRF-NH2 [EAEEPLGTMRF-NH2]
EC50 (CEGPCR16 receptor; [3]): 60 to 300 nM

EDGNAPFGTMRF-NH2 [EDGNAPFGTMRF-NH2]
EC50 (CEGPCR16 receptor; [3]): 60 to 300 nM

EIPGVLRF-NH2 [EIPGVLRF-NH2]
EC50 (CEGPCR16 receptor; [3]): 700 to 4600 nM

EIVFHQISPIFFRF-NH2 [EIVFHQISPIFFRF-NH2]
EC50 (CEGPCR5): 1000 to 8000 nM

FDDYGHLRF-NH2 [FDDYGHLRF-NH2]
EC50 (CEGPCR12h receptor; Table 11, one range for the group, results apply to all CEGPCR12 isoforms, read-out: EC50 range): 300 to 500 nM

GDVPGVLRF-NH2 [GDVPGVLRF-NH2]
EC50 (CEGPCR16 receptor; [3]): 700 to 4600 nM
activity at single concentration (CEGPCR12h receptor; Table 11): active at

GMPGVLRF-NH2 [GMPGVLRF-NH2]
EC50 (CEGPCR5): 1000 to 8000 nM
EC50 (CEGPCR16 receptor; [3]): 60 to 300 nM
activity at single concentration (CEGPCR12h receptor; Table 11): active at

KHEYLRF-NH2 [KHEYLRF-NH2]
EC50 (CEGPCR5): 1000 to 8000 nM

KPNFLRF-NH2 [KPNFLRF-NH2]
EC50 (CEGPCR5): 1000 to 8000 nM

KPNFLRY-NH2 [KPNFLRY-NH2]
EC50 (CEGPCR5; [2]): 1000 to 8000 nM

KSVPGVLRF-NH2 [KSVPGVLRF-NH2]
EC50 (CEGPCR5): 1000 to 8000 nM
EC50 (CEGPCR16 receptor; [3]): 700 to 4600 nM
activity at single concentration (CEGPCR12h receptor; Table 11): active at

SADDSAPFGTMRF-NH2 [SADDSAPFGTMRF-NH2]
EC50 (CEGPCR16 receptor; [3]): 60 to 300 nM

SAEPFGTMRF-NH2 [SAEPFGTMRF-NH2]
EC50 (CEGPCR16 receptor; [3]): 60 to 300 nM

SDRNFLRF-NH2 [SDRNFLRF-NH2]
EC50 (CEGPCR5; [2]): 80 to 800 nM

SEVPGVLRF-NH2 [SEVPGVLRF-NH2]
EC50 (CEGPCR16 receptor; [3]): 700 to 4600 nM

SPLGTMRF-NH2 [SPLGTMRF-NH2]
EC50 (CEGPCR16 receptor; [3]): 60 to 300 nM

SVPGVLRF-NH2 [SVPGVLRF-NH2]
EC50 (CEGPCR5): 80 to 800 nM
EC50 (CEGPCR16 receptor; [3]): 60 to 300 nM
EC50 (CEGPCR16 receptor; read-out: EC50): 64 nM
activity at single concentration (CEGPCR12h receptor; Table 11): active at

TDVDHVFLRF-NH2 [TDVDHVFLRF-NH2]
EC50 (CEGPCR12h receptor; [1]): 1500 to 3000 nM

TNRNFLRF-NH2 [TNRNFLRF-NH2]
EC50 (CEGPCR5; [2]): 80 to 800 nM

YGLGPRPLRF-NH2 [YGLGPRPLRF-NH2]
EC50 (CEGPCR5; [2]): 80 to 800 nM

YGVLRF-NH2 (synthetic) [Y-GVLRF-NH2]
binding result (CEGPCR4): binds

PGVLRF-NH2 (synthetic) [PGVLRF-NH2]
binding result (CEGPCR4): binds

GVLRF-NH2 (synthetic) [GVLRF-NH2]
binding result (CEGPCR4): binds

VPGVLRF-NH2 (synthetic) [VPGVLRF-NH2]
binding result (CEGPCR4): binds

Ac-GVLRF-NH2 (synthetic) [Ac-GVLRF-NH2]
binding result (CEGPCR4): binds
